One series has as its system NOD mice. The series is described as follows: Spontaneous T1D model (NOD mice), blood glucose values. The series is classed as in vivo. As to conditions: for % of reduction from Isotype/vehicle group: BGV at week 40 of age; for efficacy on the BGV: therapeutic setting. From the text: The efficacy of COMPOUND and of an anti-CD3 monoclonal antibody alone or in combination, or the combination of an anti-CD3 monoclonal antibody and anti-CXCL10 monoclonal antibody can be determined in inducible and spontaneous mouse models of T1D.
The efficacy of COMPOUND and the anti-CD3 monoclonal antibody alone or in combination can be determined in non-obese diabetic (NOD) mice, a spontaneous model for studying T1D (Chen et al. Front Endocrinol 2018, 9:51).
Blood glucose concentrations may be measured using a dynaValeo glucometer from dynamiCARE.
NOD mice usually develop diabetes defined as a blood glucose value (BGV)≥300 mg/dl between 13 and 30 weeks of age.
Groups of 14 to 17 mice are treated in a therapeutic setting, starting from the first measurement of diabetes (BGV≥300 mg/dL) for each mouse (day 1). Mice are randomized based on BGV and age at treatment initiation in five treatment groups: • Group 1: Isotype injected i.v., q.d., from day 1 to day 3+ control food from day 1 until end of the study (Isotype/vehicle) • Group 2: Isotype injected i.v., q.d., from day 1 to day 3+ food loaded with COMPOUND (0.6 mg/g of food) from day 1 until end of the study (Isotype/COMPOUND) • Group 3: Anti-CD3 antibody (30 μg), i.v., q.d., from day 1 to day 3+ control food from day 1 until end of the study (anti-CD3/vehicle) • Group 4: Anti-CD3 antibody (30 μg), i.v., q.d., from day 1 to day 3+ anti-CXCL10 antibody (100 μg), i.p., from day 4 to day 19 (administrations every 2nd/3rd day, 8 administations in total)+control food from day 1 until end of the study (anti-CD3/anti-CXCL10) • Group 5: Anti-CD3 antibody (30 μg), i.v., q.d., from day 1 to day 3+ food loaded with COMPOUND (0.6 mg/g of food) from day 1 until end of the study (anti-CD3/COMPOUND)
BGVs are assessed on a weekly basis and are compared between Isotype/control food-treated mice (group 1) and mice receiving the different treatments. For each mouse the experiment is terminated when the respective mouse reaches 40 weeks of age.
In this sub-analysis, only the mice not severely hyperglycemic at treatment initiation (defined as 300 mg/dL≤BGV≤400 mg/dL) were included in the study results.

Series [1] has as its system CXCR3-expressing CD8+ T cell migration into the BAL. The series is described as follows: LPS-induced lung inflammation model, BAL CXCR3+CD8+ T cells by flow cytometry. The series is classed as in vivo, Male DBA/1 mice.
The nature of series [2]: COMPOUND plasma concentration in LPS-induced lung inflammation model. As to conditions: food admix, increasing doses. The series is classed as in vivo, Male DBA/1 mice. The procedure:
Groups of 11 to 22 mice are given food mixed with different concentrations of COMPOUND (food admix) starting 3 days prior the LPS challenge and continuing during the whole duration of the experiment. The study consists of seven treatment groups: • 1. Control food admix (no COMPOUND), n=22 • 2. Food admix containing 0.006 mg COMPOUND per g food, n=12 • 3. Food admix containing 0.02 mg COMPOUND per g food, n=12 • 4. Food admix containing 0.06/0.07 mg COMPOUND per g food, n=24 • 5. Food admix containing 0.2 mg COMPOUND per g food, n=12 • 6. Food admix containing 0.6 mg COMPOUND per g food, n=11 • 7. Food admix containing 2 mg COMPOUND per g food, n=11
The experiment is terminated at day 3, 72 hours post LPS challenge. BAL is collected and number of T cells expressing CXCR3 quantified by flow cytometry as described in Pouzol et al., Front Pharmacol 2021,12(2991), doi: 10.3389/fphar.2021.748740. Plasma samples are taken for COMPOUND concentration determination.

Series [3] has as its system patients with severe corticosteroid-refractory ulcerative colitis. To be noted: 15 μg/kg/day reduced to 10 μg/kg/day; cited from earlier work.

Turning to `Cc1ncn(CC(=O)N2CCN(c3sc(C(F)(F)F)nc3-c3cnc(C(F)(F)F)nc3)C[C@H]2CCO)n1` [COMPOUND, 1-{(R)-2-(2-Hydroxy-ethyl)-4-[2-trifluoromethyl-4-(2-trifluoromethyl-pyrimidin-5-yl)-thiazol-5-yl]-piperazin-1-yl}-2-(3-methyl-[1,2,4]triazol-1-yl)-ethanone], the “% of reduction from Isotype/vehicle group” value in the series on NOD mice (NOD mice, n = 14-17/group) is given as 9%; in the series on NOD mice (non-severe diabetic NOD mice, n = 7-11/group), 13%. The “efficacy on the BGV” value with NOD mice (NOD mice) and in the series with NOD mice (non-severe diabetic NOD mice sub-analysis) was “minimal” each time. Also, the “BGV at week 40 of age (mg/dL) (Mean ± SEM)” value was found to be 540.9 ± 35.4 mg/dL in the series with NOD mice (NOD mice, treatment from BGV≥300 mg/dL, n = 14-17/group) and 517.3 ± 63.9 mg/dL in the series on NOD mice (non-severe diabetic NOD mice (300 mg/dL ≤ BGV ≤ 400 mg/dL at treatment initiation), n = 7-11/group). Besides, the “mice that showed disease progression” value in the series on NOD mice (non-severe diabetic NOD mice, end of the study period) is 86%. Also, in series [1] (dose 0.6 mg of COMPOUND/g of food), the “CXCR3+CD8+ T cell migration into the BAL” value was “significantly and maximally reduces”. Besides, in series [1] (preventive setting, food admix 0.006 to 2 mg COMPOUND per g food from 3 days prior LPS, BAL 72 hours post LPS challenge), the “BAL CXCR3+CD8+ T cells” value is listed as “dose-dependent decrease”. Moreover, in series [2], the COMPOUND plasma concentration entry was “dose-dependent increase”.

B1: visilizumab: humanized IgG2 anti-CD3 antibody with two point mutations in its Fc portion for FcR non-binding properties (antibody, chains of the INN, looked up, V domains shown)
VH: QVQLVQSGAEVKKPGASVKVSCKASGYTFISYTMHWVRQAPGQGLEWMGYINPRSGYTHYNQKLKDKATLTADKSASTAYMELSSLRSEDTAVYYCARSAYYDYDGFAYWGQGTLVTVSS
VL: DIQMTQSPSSLSASVGDRVTITCSASSSVSYMNWYQQKPGKAPKRLIYDTSKLASGVPSRFSGSGSGTDFTLTISSLQPEDFATYYCQQWSSNPPTFGGGTKVEIK
B1: the “patients demonstrating a clinical response” value in series [3] was 84%.

The values are drawn from US20250381184A1, “PHARMACEUTICAL COMBINATION COMPRISING AN ANTI-CD3 ANTIBODY AND A CXCR3 ANTAGONIST” (Idorsia Pharmaceuticals Ltd, priority 2022, published 2025).
